Source: PubChem BioAssay (NCI)
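Briefly, cells in 96-well plates were exposed to five compound concentrations for 48 h, and endpoints were estimated by linear interpolation. TGI denotes the concentration required for complete inhibition of growth.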

What was measured:
Assay in all cases: DTP human tumour cell line panel, 48 h
NCI-H522 lung = test system: NCI-H522 lung
A498 renal = test system: A498 renal
T-47D breast = test system: T-47D breast
ACHN renal = test system: ACHN renal
SF-268 CNS = test system: SF-268 CNS
LOX IMVI melanoma = test system: LOX IMVI melanoma
HOP-62 NSCLC = test system: HOP-62 NSCLC
RXF 393 renal = test system: RXF 393 renal
M14 melanoma = test system: M14 melanoma
SN12C renal = test system: SN12C renal
HCT-116 colon = test system: HCT-116 colon
OVCAR-8 ovarian = test system: OVCAR-8 ovarian
SW-620 colon = test system: SW-620 colon
OVCAR-5 ovarian = test system: OVCAR-5 ovarian
HCT-15 colon = test system: HCT-15 colon
MDA-MB-435 = test system: MDA-MB-435
HOP-92 NSCLC = test system: HOP-92 NSCLC
EKVX NSCLC = test system: EKVX NSCLC
NCI-H226 lung = test system: NCI-H226 lung
SNB-75 CNS = test system: SNB-75 CNS
UO-31 renal = test system: UO-31 renal
HCC-2998 colon = test system: HCC-2998 colon
BT-549 breast = test system: BT-549 breast
MOLT-4 leukemia = test system: MOLT-4 leukemia
UACC-62 melanoma = test system: UACC-62 melanoma
SF-539 CNS = test system: SF-539 CNS
SK-MEL-28 melanoma = test system: SK-MEL-28 melanoma
MCF7 breast = test system: MCF7 breast
MDA-N = test system: MDA-N
SK-MEL-2 melanoma = test system: SK-MEL-2 melanoma
NCI-H23 lung = test system: NCI-H23 lung
786-0 renal = test system: 786-0 renal
CAKI-1 renal = test system: CAKI-1 renal
RPMI-8226 leukemia = test system: RPMI-8226 leukemia
SK-MEL-5 melanoma = test system: SK-MEL-5 melanoma
NCI/ADR-RES ovarian = test system: NCI/ADR-RES ovarian
OVCAR-3 ovarian = test system: OVCAR-3 ovarian
DU-145 prostate = test system: DU-145 prostate
MALME-3M melanoma = test system: MALME-3M melanoma
UACC-257 melanoma = test system: UACC-257 melanoma
IGROV1 ovarian = test system: IGROV1 ovarian
SR leukemia = test system: SR leukemia
HL-60(TB) leukemia = test system: HL-60(TB) leukemia
NCI-H460 lung = test system: NCI-H460 lung
SK-OV-3 ovarian = test system: SK-OV-3 ovarian
SF-295 CNS = test system: SF-295 CNS
OVCAR-4 ovarian = test system: OVCAR-4 ovarian
PC-3 prostate = test system: PC-3 prostate
CCRF-CEM leukemia = test system: CCRF-CEM leukemia
A549 NSCLC = test system: A549 NSCLC
HT29 colon = test system: HT29 colon
COLO 205 colon = test system: COLO 205 colon
K-562 leukemia = test system: K-562 leukemia
TK-10 renal = test system: TK-10 renal
SNB-19 CNS = test system: SNB-19 CNS
HS 578T breast = test system: HS 578T breast
KM12 colon = test system: KM12 colon
U251 CNS = test system: U251 CNS

Question: Which results are given for O=C(/C=C/c1ccccc1)NNC(=O)c1c(Cl)c(Cl)c(Cl)c(Cl)c1-c1nc2ccccc2[nH]1?
Answer: TGI (NCI-H522 lung): 63.4 µM; TGI (A498 renal): 90.9 µM; TGI (T-47D breast): 60.6 µM; TGI (ACHN renal): > 100 µM; TGI (SF-268 CNS): > 100 µM; TGI (LOX IMVI melanoma): 59.6 µM; TGI (HOP-62 NSCLC): 56.5 µM; TGI (RXF 393 renal): 47.3 µM; TGI (M14 melanoma): 83.5 µM; TGI (SN12C renal): 63.4 µM; TGI (HCT-116 colon): 53.6 µM; TGI (OVCAR-8 ovarian): > 100 µM; TGI (SW-620 colon): > 100 µM; TGI (OVCAR-5 ovarian): > 100 µM; TGI (HCT-15 colon): 90.7 µM; TGI (MDA-MB-435): > 100 µM; TGI (HOP-92 NSCLC): 45.7 µM; TGI (EKVX NSCLC): > 100 µM; TGI (NCI-H226 lung): > 100 µM; TGI (SNB-75 CNS): 59.2 µM; TGI (UO-31 renal): 55.6 µM; TGI (HCC-2998 colon): 65.9 µM; TGI (BT-549 breast): 76.1 µM; TGI (MOLT-4 leukemia): > 100 µM; TGI (UACC-62 melanoma): > 100 µM; TGI (SF-539 CNS): > 100 µM; TGI (SK-MEL-28 melanoma): > 100 µM; TGI (MCF7 breast): > 100 µM; TGI (MDA-N): 45.4 µM; TGI (SK-MEL-2 melanoma): 80.8 µM; TGI (NCI-H23 lung): 60 µM; TGI (786-0 renal): 73.8 µM; TGI (CAKI-1 renal): > 100 µM; TGI (RPMI-8226 leukemia): 83.2 µM; TGI (SK-MEL-5 melanoma): 62.4 µM; TGI (NCI/ADR-RES ovarian): 64.9 µM; TGI (OVCAR-3 ovarian): > 100 µM; TGI (DU-145 prostate): > 100 µM; TGI (MALME-3M melanoma): 59.1 µM; TGI (UACC-257 melanoma): 99.1 µM; TGI (IGROV1 ovarian): 45.6 µM; TGI (SR leukemia): > 100 µM; TGI (HL-60(TB) leukemia): 50.7 µM; TGI (NCI-H460 lung): 61 µM; TGI (SK-OV-3 ovarian): 54.9 µM; TGI (SF-295 CNS): > 100 µM; TGI (OVCAR-4 ovarian): > 100 µM; TGI (PC-3 prostate): > 100 µM; TGI (CCRF-CEM leukemia): 75.8 µM; TGI (A549 NSCLC): 67.7 µM; TGI (HT29 colon): > 100 µM; TGI (COLO 205 colon): 33.2 µM; TGI (K-562 leukemia): > 100 µM

Question: With O=c1ccn([C@@H]2C[C@@H]2CO)c(=O)[nH]1 as the molecule, how does the TGI (TK-10 renal) read?
Answer: The TGI was greater than 100 µM.

Question: And the TGI (NCI-H522 lung)?
Answer: Its TGI is greater than 100 µM.

Question: And the TGI (A498 renal)?
Answer: The TGI was greater than 100 µM.

Question: What about the TGI (T-47D breast) of the same molecule?
Answer: The TGI was greater than 100 µM.

Question: What about the TGI (ACHN renal) of the same molecule?
Answer: Its TGI is greater than 100 µM.

Question: What about the TGI (SF-268 CNS) of the same molecule?
Answer: Its TGI is greater than 100 µM.

Question: And the TGI (LOX IMVI melanoma)?
Answer: The TGI was greater than 100 µM.

Question: And the TGI (HOP-62 NSCLC)?
Answer: Its TGI is greater than 100 µM.

Question: And the TGI (SNB-19 CNS)?
Answer: The TGI was greater than 100 µM.

Question: And the TGI (RXF 393 renal)?
Answer: The TGI was greater than 100 µM.

Question: And the TGI (M14 melanoma)?
Answer: Its TGI is greater than 100 µM.

Question: What about the TGI (SN12C renal) of the same molecule?
Answer: The TGI was greater than 100 µM.

Question: And the TGI (HCT-116 colon)?
Answer: The TGI was greater than 100 µM.

Question: And the TGI (OVCAR-8 ovarian)?
Answer: The TGI was greater than 100 µM.

Question: What about the TGI (SW-620 colon) of the same molecule?
Answer: Its TGI is greater than 100 µM.

Question: And the TGI (OVCAR-5 ovarian)?
Answer: Its TGI is greater than 100 µM.

Question: And the TGI (HCT-15 colon)?
Answer: Its TGI is greater than 100 µM.

Question: And the TGI (MDA-MB-435)?
Answer: Its TGI is greater than 100 µM.

Question: What about the TGI (HOP-92 NSCLC) of the same molecule?
Answer: The TGI was greater than 100 µM.

Question: What about the TGI (EKVX NSCLC) of the same molecule?
Answer: The TGI was greater than 100 µM.

Question: And the TGI (HS 578T breast)?
Answer: The TGI was greater than 100 µM.

Question: What about the TGI (NCI-H226 lung) of the same molecule?
Answer: The TGI was greater than 100 µM.

Question: And the TGI (SNB-75 CNS)?
Answer: Its TGI is greater than 100 µM.

Question: And the TGI (UO-31 renal)?
Answer: The TGI was greater than 100 µM.

Question: What about the TGI (HCC-2998 colon) of the same molecule?
Answer: Its TGI is greater than 100 µM.

Question: What about the TGI (BT-549 breast) of the same molecule?
Answer: Its TGI is greater than 100 µM.

Question: And the TGI (UACC-62 melanoma)?
Answer: The TGI was greater than 100 µM.

Question: And the TGI (SF-539 CNS)?
Answer: Its TGI is greater than 100 µM.

Question: What about the TGI (SK-MEL-28 melanoma) of the same molecule?
Answer: The TGI was greater than 100 µM.

Question: And the TGI (MCF7 breast)?
Answer: Its TGI is greater than 100 µM.

Question: What about the TGI (MDA-N) of the same molecule?
Answer: The TGI was greater than 100 µM.

Question: And the TGI (SK-MEL-2 melanoma)?
Answer: The TGI was greater than 100 µM.

Question: And the TGI (NCI-H23 lung)?
Answer: Its TGI is greater than 100 µM.

Question: What about the TGI (786-0 renal) of the same molecule?
Answer: The TGI was greater than 100 µM.

Question: What about the TGI (CAKI-1 renal) of the same molecule?
Answer: The TGI was greater than 100 µM.

Question: What about the TGI (RPMI-8226 leukemia) of the same molecule?
Answer: The TGI was greater than 100 µM.

Question: And the TGI (SK-MEL-5 melanoma)?
Answer: The TGI was greater than 100 µM.

Question: What about the TGI (NCI/ADR-RES ovarian) of the same molecule?
Answer: Its TGI is greater than 100 µM.

Question: What about the TGI (KM12 colon) of the same molecule?
Answer: The TGI was greater than 100 µM.

Question: And the TGI (DU-145 prostate)?
Answer: Its TGI is greater than 100 µM.

Question: And the TGI (MALME-3M melanoma)?
Answer: The TGI was greater than 100 µM.

Question: What about the TGI (U251 CNS) of the same molecule?
Answer: The TGI was greater than 100 µM.

Question: And the TGI (UACC-257 melanoma)?
Answer: Its TGI is greater than 100 µM.

Question: And the TGI (IGROV1 ovarian)?
Answer: Its TGI is greater than 100 µM.

Question: And the TGI (SR leukemia)?
Answer: The TGI was greater than 100 µM.

Question: What about the TGI (HL-60(TB) leukemia) of the same molecule?
Answer: The TGI was greater than 100 µM.

Question: And the TGI (NCI-H460 lung)?
Answer: The TGI was greater than 100 µM.

Question: What about the TGI (OVCAR-4 ovarian) of the same molecule?
Answer: Its TGI is greater than 100 µM.

Question: And the TGI (PC-3 prostate)?
Answer: Its TGI is greater than 100 µM.

Question: And the TGI (CCRF-CEM leukemia)?
Answer: The TGI was greater than 100 µM.

Question: And the TGI (A549 NSCLC)?
Answer: Its TGI is greater than 100 µM.

Question: And the TGI (HT29 colon)?
Answer: The TGI was greater than 100 µM.

Question: What about the TGI (COLO 205 colon) of the same molecule?
Answer: The TGI was greater than 100 µM.

Question: What about the TGI (K-562 leukemia) of the same molecule?
Answer: Its TGI is greater than 100 µM.
